From ChEMBL document CHEMBL4373715, “Discovery and Biological Evaluations of Halogenated 2,4-Diphenyl Indeno[1,2-b]pyridinol Derivatives as Potent Topoisomerase IIα-Targeted Chemotherapeutic Agents for Breast Cancer” (J Med Chem, 2019)

What was measured:
[1] = molecular target: T1, DNA topoisomerase 1 (Homo sapiens) (UniProt P11387); assay: Inhibition of recombinant human topoisomerase 1-mediated relaxation of supercoiled pBR322 DNA at 100 uM measured after 30 mins by ethidium bromide staining based agarose gel electrophoresis relative to control
T1 sequence (whole entry): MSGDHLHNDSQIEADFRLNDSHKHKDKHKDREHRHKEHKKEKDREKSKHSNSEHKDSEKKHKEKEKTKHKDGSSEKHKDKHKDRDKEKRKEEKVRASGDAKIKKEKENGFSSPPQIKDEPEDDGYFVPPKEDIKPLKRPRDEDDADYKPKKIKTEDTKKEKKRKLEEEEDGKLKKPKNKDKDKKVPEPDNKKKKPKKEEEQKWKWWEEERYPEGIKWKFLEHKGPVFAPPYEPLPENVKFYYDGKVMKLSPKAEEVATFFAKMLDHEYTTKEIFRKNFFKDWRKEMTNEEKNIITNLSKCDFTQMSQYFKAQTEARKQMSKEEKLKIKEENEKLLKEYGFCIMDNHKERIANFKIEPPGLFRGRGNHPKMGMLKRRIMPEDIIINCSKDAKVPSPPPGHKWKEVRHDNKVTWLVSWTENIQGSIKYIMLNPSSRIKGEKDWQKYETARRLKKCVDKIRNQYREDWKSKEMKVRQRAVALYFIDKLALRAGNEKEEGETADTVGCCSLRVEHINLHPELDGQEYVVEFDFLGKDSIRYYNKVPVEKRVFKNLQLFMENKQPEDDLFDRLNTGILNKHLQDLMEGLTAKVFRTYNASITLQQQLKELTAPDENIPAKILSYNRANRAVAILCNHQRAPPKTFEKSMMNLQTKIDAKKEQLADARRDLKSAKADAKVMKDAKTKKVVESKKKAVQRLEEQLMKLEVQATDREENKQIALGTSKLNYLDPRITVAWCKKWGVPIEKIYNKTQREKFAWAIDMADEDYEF

[2] = system: HeLa; assay: Antiproliferative activity against human HeLa cells measured after 72 hrs by EZ-Cytox assay; type: functional, cell-based
[3] = molecular target: DNA topoisomerase 2-alpha (Homo sapiens) (UniProt P11388); assay: Inhibition of recombinant human topoisomerase 2alpha-mediated relaxation of supercoiled pBR322 DNA at 100 uM measured after 30 mins by ethidium bromide staining based agarose gel electrophoresis relative to control
[4] = system: HCT-15; assay: Antiproliferative activity against human HCT15 cells measured after 72 hrs by EZ-Cytox assay; type: functional, cell-based; conditions: HCT-15, 72 h
[5] = system: DU-145; assay: Antiproliferative activity against human DU145 cells measured after 72 hrs by EZ-Cytox assay; type: functional, cell-based; conditions: DU-145, 72 h
[6] = system: T47D; assay: Antiproliferative activity against human T47D cells measured after 72 hrs by EZ-Cytox assay; type: functional, cell-based

Sequence of DNA topoisomerase 2-alpha (Homo sapiens) (P11388 whole entry): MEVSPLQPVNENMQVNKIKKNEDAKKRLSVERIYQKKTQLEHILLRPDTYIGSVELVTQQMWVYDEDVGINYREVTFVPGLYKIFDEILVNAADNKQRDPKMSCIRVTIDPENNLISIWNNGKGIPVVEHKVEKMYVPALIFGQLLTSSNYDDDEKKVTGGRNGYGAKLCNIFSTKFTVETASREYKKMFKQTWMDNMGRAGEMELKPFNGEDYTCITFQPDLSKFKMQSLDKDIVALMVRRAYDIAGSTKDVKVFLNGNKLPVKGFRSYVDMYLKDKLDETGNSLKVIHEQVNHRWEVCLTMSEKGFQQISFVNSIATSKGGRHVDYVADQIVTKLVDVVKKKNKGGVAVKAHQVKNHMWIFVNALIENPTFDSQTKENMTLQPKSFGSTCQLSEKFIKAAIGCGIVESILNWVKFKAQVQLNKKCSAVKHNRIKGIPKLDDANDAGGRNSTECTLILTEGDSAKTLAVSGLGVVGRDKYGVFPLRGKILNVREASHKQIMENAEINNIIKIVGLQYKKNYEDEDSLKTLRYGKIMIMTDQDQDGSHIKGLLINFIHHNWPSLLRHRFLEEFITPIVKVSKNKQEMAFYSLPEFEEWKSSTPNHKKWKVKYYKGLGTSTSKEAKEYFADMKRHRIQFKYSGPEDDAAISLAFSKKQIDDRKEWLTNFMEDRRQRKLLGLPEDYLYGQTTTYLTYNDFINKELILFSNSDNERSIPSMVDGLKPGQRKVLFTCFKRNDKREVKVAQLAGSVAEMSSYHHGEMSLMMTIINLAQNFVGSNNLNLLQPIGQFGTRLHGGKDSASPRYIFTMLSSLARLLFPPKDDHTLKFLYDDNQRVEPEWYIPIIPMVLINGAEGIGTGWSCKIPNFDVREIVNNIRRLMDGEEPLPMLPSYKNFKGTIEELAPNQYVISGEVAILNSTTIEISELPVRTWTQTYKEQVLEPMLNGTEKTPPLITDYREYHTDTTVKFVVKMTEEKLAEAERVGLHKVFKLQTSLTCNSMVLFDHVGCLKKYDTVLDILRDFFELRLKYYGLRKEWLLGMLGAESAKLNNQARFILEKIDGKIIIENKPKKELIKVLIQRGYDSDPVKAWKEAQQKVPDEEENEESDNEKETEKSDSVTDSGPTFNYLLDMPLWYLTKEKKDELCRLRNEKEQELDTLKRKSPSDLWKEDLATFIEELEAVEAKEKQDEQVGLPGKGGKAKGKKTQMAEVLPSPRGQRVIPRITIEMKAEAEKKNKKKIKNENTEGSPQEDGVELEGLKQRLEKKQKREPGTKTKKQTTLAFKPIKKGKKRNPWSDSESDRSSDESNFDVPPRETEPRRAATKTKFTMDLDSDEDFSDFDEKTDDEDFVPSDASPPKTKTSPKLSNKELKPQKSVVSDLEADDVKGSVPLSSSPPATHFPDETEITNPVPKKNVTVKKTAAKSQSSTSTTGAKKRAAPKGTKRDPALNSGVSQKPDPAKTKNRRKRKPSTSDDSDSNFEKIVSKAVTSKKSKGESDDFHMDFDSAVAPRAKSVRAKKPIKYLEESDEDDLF

| Compound | inhibition [1] [%] | IC50 [2] [µM] | inhibition [3] [%] | IC50 [4] [µM] | IC50 [5] [µM] | IC50 [6] [µM] |
| --- | --- | --- | --- | --- | --- | --- |
| Oc1ccc(-c2cc(-c3ccccc3)nc3c2Cc2ccc(O)cc2-3)cc1 | 6 | > 50 | 2.4 | > 50 | 1.38 | 2.99 |
| Oc1ccc(-c2cc(-c3ccccc3)nc3c2Cc2c(O)cccc2-3)cc1 | 4.4 | 1.94 | 1.5 | 2.78 | 1.28 | 2.89 |
| Oc1ccccc1-c1cc(-c2ccccc2)c2c(n1)-c1c(O)cccc1C2 | 1 | > 50 | 1.2 | > 50 | 9.61 | > 50 |
| Oc1ccc(-c2cc(-c3cccc(F)c3)nc3c2Cc2cc(O)ccc2-3)cc1 | 8.7 | 6.76 | 4.5 | 3.57 | 1.44 | 1.34 |
| Oc1ccccc1-c1cc(-c2ccccc2F)nc2c1Cc1cccc(O)c1-2 | 0 | 7.63 | 0.6 | 3.76 | 9.9 | 4.56 |
| Oc1ccc2c(c1)Cc1c(-c3ccccc3O)cc(-c3ccccc3F)nc1-2 | 0 | 4.94 | 13.4 | 3.37 | 3.82 | 0.7 |
| Oc1ccc2c(c1)-c1nc(-c3ccccc3F)cc(-c3ccccc3O)c1C2 | 0 | 4.36 | 27 | 2.98 | 4.07 | 0.61 |
| Oc1cccc(-c2cc(-c3ccccc3F)nc3c2Cc2cccc(O)c2-3)c1 | 4 | 12.1 | 8.7 | 8.33 | 1.88 | 0.83 |
| Oc1ccc2c(c1)-c1nc(-c3ccc(F)cc3)cc(-c3ccccc3O)c1C2 | 0 | 4.38 | 23.3 | 3.13 | 3.49 | 0.19 |
| Oc1ccc(-c2cc(-c3cccc(F)c3)nc3c2Cc2c(O)cccc2-3)cc1 | 8.6 | 7.3 | 0.7 | 4.75 | 2.04 | 0.57 |
| Oc1ccc(-c2cc(-c3cccc(Cl)c3)nc3c2Cc2cccc(O)c2-3)cc1 | 0 | 6.23 | 24.4 | 1.3 | 0.03 | 0.83 |
| Oc1ccc(-c2cc(-c3ccc(Cl)cc3)nc3c2Cc2cccc(O)c2-3)cc1 | 0.2 | > 50 | 26.2 | > 50 | 2.8 | > 50 |
| Oc1ccc(-c2cc(-c3ccccc3)nc3c2Cc2cccc(O)c2-3)cc1 | 10.2 | > 50 | 4 | > 50 | 4.13 | > 50 |
| Oc1ccc(-c2cc(-c3ccccc3F)nc3c2Cc2cc(O)ccc2-3)cc1 | 12.2 | 4.84 | 10.6 | 3.01 | 1.26 | 1.39 |
| Oc1cccc(-c2cc(-c3ccccc3F)nc3c2Cc2ccc(O)cc2-3)c1 | 16.3 | 3.74 | 28.1 | 2.96 | 0.4 | 2.97 |
| Oc1ccc(-c2cc(-c3ccccc3C(F)(F)F)nc3c2Cc2cccc(O)c2-3)cc1 | 3 | > 50 | 2.9 | > 50 | > 50 | 1.44 |
| Oc1ccccc1-c1cc(-c2ccccc2)c2c(n1)-c1cccc(O)c1C2 | 6.6 | 1.83 | 1.1 | > 50 | 2.49 | 6.43 |
| Oc1ccc(-c2cc(-c3ccccc3)nc3c2Cc2cc(O)ccc2-3)cc1 | 11.1 | 2.75 | 2.5 | > 50 | 2.48 | 3.55 |
